Data as given in patent US8389568B2, “IDO inhibitors and methods of use thereof” (Lankenau Institute for Medical Research, priority 2007, dated 2013).

The compounds below were run against human IDO (Homo sapiens, UniProt P14902) (assay: IDO inhibition enzyme assay (N-formylkynurenine/kynurenine formation read at 490 nm)). Conditions: not given.
Assay type: biochemical
Procedure: Compounds of the instant invention were analyzed for inhibition of human IDO. The assay was conducted according to a literature protocol, with ascorbic acid and methylene blue serving the role of reductant (Littlejohn et al. (2000) Protein Expression and Purification, 19:22-29; Sono et al. (1989) J. Biol. Chem., 264:1616-1622). […] The enzyme assay monitored for formation of N-formylkynurenine by hydrolyzing the formyl group and spectrophotometrically analyzing for the conjugated imine generated from kynurenine and 4-(dimethylamino) benzaldehyde.
Specifically, the inhibition assays were performed in a 96-well microtiter plate as previously described with a small modification (Littlejohn et al. (2000) Prot. Expr. Purif., 19:22-29). Briefly, the reaction mixture contained 50 mM potassium phosphate buffer (pH 6.5), 40 mM ascorbic acid, 400 μg/ml catalase, 20 μM methylene blue and purified recombinant IDO(1) optimized based on its activity. The reaction mixture was added to the substrate, L-tryptophan (L-Trp), and the inhibitor. The L-Trp was serially diluted from 200 to 25 μM and the inhibitors were tested at two concentrations, 200 and 400 μM. The reaction was carried out at 37° C. for 60 minutes and stopped by adding 30% (w/v) trichloroacetic acid. The plate was heated at 65° C. for 15 minutes to convert formylkynurenine to kynurenine and then was spun at 6000 g for 5 minutes. Finally 100 μl supernatant from each well was transferred to a new 96 well plate and mixed with 2% (w/v) p-dimethylamino-benzaldehyde in acetic acid. The yellow color generated from the reaction with kynurenine was measured at 490 nm using a Synergy HT microtiter plate reader (Bio-Tek, Winooski, Vt.). The data was analyzed using Graph Pad Prism 4 software (Graph Pad Software Inc., San Diego, Calif.).

human IDO, sequence (P14902 whole entry): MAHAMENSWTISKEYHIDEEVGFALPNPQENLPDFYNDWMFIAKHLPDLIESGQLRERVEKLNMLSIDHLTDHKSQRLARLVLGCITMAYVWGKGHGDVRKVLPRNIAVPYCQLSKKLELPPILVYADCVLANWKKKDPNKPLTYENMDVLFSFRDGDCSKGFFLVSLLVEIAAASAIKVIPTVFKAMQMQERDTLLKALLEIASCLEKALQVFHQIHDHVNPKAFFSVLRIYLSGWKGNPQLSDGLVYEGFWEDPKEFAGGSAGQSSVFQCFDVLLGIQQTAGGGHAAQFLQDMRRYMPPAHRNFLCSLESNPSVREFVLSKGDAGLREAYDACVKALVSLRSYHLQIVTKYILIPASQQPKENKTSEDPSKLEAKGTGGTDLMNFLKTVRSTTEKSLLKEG

SMILES	IC50 [nM]
CC1(C)C=CC2=C(O1)C(=O)c1ccccc1C2=O [Compound 8, 2,2-dimethyl-2H-benzo[g]chromene-5,10-dione]	155

Same assay, conditions: purified recombinant IDO(1); L-Trp substrate; ascorbic acid/methylene blue reductant, catalase; pH 6.5; 37° C. for 60 minutes; read-out: IC50

SMILES	IC50 [nM]
CC1(C)OC2=C(C(=O)c3ccccc3C2=O)[C@@H](O)[C@@H]1Br (relative stereo) [Compound 27]	290
CC1(C)OC2=C(C(=O)c3ccccc3C2=O)C2OC21 (centres unmarked) [Compound 14, 2,2-dimethyl-9a,9b-dihydro-1aH-benzo[g]oxireno[2,3-c]chromene-4,9(2H,3aH)-dione]	3300
CC1(C)C=CC2=C(O1)C(=O)c1cccc(O)c1C2=O [Compound 28, 6-hydroxy-2,2-dimethyl-2H-benzo[g]chromene-5,10-dione]	58
COC(=O)C1(C)C=CC2=C(O1)C(=O)c1ccccc1C2=O (centres unmarked) [Compound 29, methyl 2-methyl-5,10-dioxo-5,10-dihydro-2H-benzo[g]chromene-2-carboxylate]	161

Further lines, results first:

IC50 [nM]	SMILES
183	C=CCN[C@H]1C2=C(OC(C)(C)[C@H]1O)C(=O)c1ccccc1C2=O (stereo in doubt) [Compound 17, 4-(allylamino)-3-hydroxy-2,2-dimethyl-3,4-dihydro-2H-benzo[g]chromene-5,10-dione]
160	CCCCN[C@H]1C2=C(OC(C)(C)[C@H]1O)C(=O)c1ccccc1C2=O (stereo in doubt) [Compound 19, 4-(butylamino)-3-hydroxy-2,2-dimethyl-3,4-dihydro-2H-benzo[g]chromene-5,10-dione]
70	CCCCN[C@H]1C2=C(OC(C)(C)[C@@H]1O)C(=O)c1ccccc1C2=O (stereo in doubt) [Compound 20, 4-(butylamino)-3-hydroxy-2,2-dimethyl-3,4-dihydro-2H-benzo[g]chromene-5,10-dione]
976	CO[C@H]1C2=C(OC(C)(C)[C@H]1O)C(=O)c1ccccc1C2=O (stereo in doubt) [Compound 21, 3-hydroxy-4-methoxy-2,2-dimethyl-3,4-dihydro-2H-benzo[g]chromene-5,10-dione]
3960	CO[C@H]1C2=C(OC(C)(C)[C@@H]1O)C(=O)c1ccccc1C2=O (stereo in doubt) [Compound 22, 3-hydroxy-4-methoxy-2,2-dimethyl-3,4-dihydro-2H-benzo[g]chromene-5,10-dione]
1500	CC1(C)OC2=C(C(=O)c3ccccc3C2=O)[C@H](O)[C@@H]1O [Compound 12, (3S,4S)-3,4-dihydroxy-2,2-dimethyl-3,4-dihydro-2H benzo[g]chromene-5,10-dione]
